{
  "source": "paper doi:10.1101/2021.04.08.439011v1",
  "about": "(biorxiv, 2021)",
  "key": {"CSNK1E": {"target": "CSNK1E (Homo sapiens, UniProt P49674)", "details": "1 µM; binder"}, "KIT(D816H)": {"target": "KIT(D816H) (Homo sapiens, UniProt P10721, D816H)", "sequence (P10721 whole entry D816H)": "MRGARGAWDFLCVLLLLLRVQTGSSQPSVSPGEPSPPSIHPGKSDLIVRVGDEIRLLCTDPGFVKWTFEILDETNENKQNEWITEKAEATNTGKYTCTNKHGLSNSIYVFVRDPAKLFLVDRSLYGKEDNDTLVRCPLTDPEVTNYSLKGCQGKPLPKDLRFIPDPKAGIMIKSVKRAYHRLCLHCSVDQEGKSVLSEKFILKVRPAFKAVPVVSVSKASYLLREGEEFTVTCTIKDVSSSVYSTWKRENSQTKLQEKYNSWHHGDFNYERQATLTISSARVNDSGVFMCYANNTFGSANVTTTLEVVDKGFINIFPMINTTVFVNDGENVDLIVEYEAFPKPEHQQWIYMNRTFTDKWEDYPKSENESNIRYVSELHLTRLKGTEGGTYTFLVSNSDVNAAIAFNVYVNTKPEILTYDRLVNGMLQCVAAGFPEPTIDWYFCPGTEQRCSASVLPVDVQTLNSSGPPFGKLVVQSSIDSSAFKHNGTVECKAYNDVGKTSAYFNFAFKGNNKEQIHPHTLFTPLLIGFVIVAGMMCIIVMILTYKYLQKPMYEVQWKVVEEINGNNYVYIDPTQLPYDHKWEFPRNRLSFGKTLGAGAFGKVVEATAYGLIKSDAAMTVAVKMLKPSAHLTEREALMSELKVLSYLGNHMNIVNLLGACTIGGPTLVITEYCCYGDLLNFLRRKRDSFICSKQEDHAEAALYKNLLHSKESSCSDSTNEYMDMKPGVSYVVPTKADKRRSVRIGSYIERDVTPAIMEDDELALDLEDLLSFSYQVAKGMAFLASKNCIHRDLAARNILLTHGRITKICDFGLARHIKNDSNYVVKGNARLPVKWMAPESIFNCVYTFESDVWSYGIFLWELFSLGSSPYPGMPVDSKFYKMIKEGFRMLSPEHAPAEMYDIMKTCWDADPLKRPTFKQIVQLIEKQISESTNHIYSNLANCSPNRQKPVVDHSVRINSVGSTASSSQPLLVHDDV", "details": "1 µM; binder"}, "MAPKAPK2": {"target": "MAPKAPK2 (Homo sapiens, UniProt P49137)", "details": "1 µM; binder"}, "ABL1-nonphosphorylated": {"target": "ABL1-nonphosphorylated (Homo sapiens, UniProt P00519)", "sequence (P00519 whole entry)": "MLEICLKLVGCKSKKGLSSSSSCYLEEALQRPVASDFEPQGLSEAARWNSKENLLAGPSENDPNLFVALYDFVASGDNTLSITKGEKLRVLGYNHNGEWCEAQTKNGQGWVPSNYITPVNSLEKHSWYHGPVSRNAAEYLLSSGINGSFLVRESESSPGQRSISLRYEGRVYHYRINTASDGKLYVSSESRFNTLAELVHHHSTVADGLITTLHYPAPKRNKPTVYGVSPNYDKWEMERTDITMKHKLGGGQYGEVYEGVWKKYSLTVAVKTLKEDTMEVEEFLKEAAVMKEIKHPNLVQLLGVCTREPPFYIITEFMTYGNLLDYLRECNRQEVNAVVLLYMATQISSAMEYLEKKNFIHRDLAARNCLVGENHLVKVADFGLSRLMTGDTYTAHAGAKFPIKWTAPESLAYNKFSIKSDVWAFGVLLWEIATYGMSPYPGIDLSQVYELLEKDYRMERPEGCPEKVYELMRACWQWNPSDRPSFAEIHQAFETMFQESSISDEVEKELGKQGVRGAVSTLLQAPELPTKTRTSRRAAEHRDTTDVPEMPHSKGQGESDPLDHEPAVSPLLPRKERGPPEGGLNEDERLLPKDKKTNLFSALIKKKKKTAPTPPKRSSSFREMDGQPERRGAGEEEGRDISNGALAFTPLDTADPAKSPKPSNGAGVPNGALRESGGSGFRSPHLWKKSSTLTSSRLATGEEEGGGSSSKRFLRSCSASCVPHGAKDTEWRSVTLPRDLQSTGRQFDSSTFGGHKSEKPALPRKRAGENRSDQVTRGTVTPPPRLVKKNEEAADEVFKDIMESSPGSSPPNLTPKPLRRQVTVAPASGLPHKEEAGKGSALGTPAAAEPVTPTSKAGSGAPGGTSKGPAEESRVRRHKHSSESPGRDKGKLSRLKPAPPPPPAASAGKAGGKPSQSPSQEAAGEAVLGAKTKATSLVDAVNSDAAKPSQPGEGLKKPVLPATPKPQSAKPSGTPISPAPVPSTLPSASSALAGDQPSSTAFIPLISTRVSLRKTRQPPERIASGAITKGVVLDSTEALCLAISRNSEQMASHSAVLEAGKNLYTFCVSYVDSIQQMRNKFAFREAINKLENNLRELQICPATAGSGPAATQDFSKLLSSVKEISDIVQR", "details": "1 µM; binder"}, "EPHA6": {"target": "EPHA6 (Homo sapiens, UniProt Q9UF33)", "details": "1 µM; binder"}, "SRPK3": {"target": "SRPK3 (Homo sapiens, UniProt Q9UPE1)", "sequence (Q9UPE1 whole entry)": "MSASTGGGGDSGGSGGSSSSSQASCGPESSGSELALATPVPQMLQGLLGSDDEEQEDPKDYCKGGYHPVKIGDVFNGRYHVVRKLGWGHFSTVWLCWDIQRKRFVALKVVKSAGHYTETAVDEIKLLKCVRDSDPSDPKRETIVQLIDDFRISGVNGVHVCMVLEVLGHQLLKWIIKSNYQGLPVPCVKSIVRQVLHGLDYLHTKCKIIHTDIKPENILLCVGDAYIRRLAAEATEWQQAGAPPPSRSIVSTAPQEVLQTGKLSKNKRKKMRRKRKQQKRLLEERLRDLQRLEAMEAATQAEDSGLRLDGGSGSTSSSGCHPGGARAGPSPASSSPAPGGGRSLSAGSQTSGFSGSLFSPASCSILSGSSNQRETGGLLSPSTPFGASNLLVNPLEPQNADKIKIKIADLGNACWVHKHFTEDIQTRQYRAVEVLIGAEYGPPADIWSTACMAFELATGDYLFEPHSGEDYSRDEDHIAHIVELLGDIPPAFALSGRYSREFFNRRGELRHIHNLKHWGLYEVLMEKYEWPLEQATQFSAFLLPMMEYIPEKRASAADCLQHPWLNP", "details": "1 µM; binder"}, "ABL1(E255K)": {"target": "ABL1(E255K) (Homo sapiens, UniProt P00519, E255K)", "sequence (P00519 whole entry E255K)": "as the sequence (P00519 whole entry) above, with E255K counted along it", "details": "phosphorylated; 1 µM; binder"}, "PRKCQ": {"target": "PRKCQ (Homo sapiens, UniProt Q04759)", "sequence (Q04759 whole entry)": "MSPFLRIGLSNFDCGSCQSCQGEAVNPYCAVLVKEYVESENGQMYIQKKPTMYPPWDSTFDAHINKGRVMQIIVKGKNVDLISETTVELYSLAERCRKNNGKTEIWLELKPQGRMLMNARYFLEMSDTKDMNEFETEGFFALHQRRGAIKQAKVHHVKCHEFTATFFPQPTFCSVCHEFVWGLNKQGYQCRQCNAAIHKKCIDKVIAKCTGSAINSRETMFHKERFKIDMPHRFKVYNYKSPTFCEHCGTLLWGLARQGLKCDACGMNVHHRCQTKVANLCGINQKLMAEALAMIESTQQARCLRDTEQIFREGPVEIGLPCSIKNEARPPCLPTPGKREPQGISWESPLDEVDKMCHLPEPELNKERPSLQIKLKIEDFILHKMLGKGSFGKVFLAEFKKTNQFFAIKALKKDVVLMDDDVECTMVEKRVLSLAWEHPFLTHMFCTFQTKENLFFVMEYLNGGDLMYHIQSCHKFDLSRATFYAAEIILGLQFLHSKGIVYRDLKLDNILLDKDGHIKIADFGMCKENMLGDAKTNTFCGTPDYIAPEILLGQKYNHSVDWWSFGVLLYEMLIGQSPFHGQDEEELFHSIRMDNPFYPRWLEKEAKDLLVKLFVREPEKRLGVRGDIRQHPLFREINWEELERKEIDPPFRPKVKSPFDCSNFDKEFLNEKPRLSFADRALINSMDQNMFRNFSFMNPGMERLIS", "details": "1 µM; binder"}, "DCAMKL1": {"target": "DCAMKL1 (Homo sapiens, UniProt O15075)", "details": "1 µM; binder"}, "EGFR(T790M)": {"target": "EGFR(T790M) (Homo sapiens, UniProt P00533, T790M)", "details": "1 µM; binder"}, "KIT(V559D)": {"target": "KIT(V559D) (Homo sapiens, UniProt P10721, V559D)", "sequence (P10721 whole entry V559D)": "as the sequence (P10721 whole entry D816H) above, with V559D, H816D counted along it", "details": "1 µM; binder"}, "EPHA3": {"target": "EPHA3 (Homo sapiens, UniProt P29320)", "details": "1 µM; binder"}, "NEK3": {"target": "NEK3 (Homo sapiens, UniProt P51956)", "sequence (P51956 whole entry)": "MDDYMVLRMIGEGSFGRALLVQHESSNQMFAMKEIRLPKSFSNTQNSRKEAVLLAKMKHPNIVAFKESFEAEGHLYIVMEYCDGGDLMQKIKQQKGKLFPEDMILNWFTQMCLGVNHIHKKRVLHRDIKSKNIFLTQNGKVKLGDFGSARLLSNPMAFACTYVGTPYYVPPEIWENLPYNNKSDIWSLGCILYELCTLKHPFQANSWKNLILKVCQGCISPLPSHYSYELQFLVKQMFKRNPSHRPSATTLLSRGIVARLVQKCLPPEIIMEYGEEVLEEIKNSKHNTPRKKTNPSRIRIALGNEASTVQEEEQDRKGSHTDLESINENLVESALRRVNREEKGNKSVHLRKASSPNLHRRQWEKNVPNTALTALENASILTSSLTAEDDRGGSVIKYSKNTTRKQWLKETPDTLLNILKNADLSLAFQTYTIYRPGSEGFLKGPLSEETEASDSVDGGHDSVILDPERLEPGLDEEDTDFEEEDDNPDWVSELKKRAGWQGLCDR", "details": "1 µM; binder"}, "PHKG2": {"target": "PHKG2 (Homo sapiens, UniProt P15735)", "details": "1 µM; binder"}, "HUNK": {"target": "HUNK (Homo sapiens, UniProt P57058)", "details": "1 µM; binder"}, "RPS6KA2": {"target": "RPS6KA2 (Homo sapiens, UniProt Q15349)", "sequence (Q15349 whole entry)": "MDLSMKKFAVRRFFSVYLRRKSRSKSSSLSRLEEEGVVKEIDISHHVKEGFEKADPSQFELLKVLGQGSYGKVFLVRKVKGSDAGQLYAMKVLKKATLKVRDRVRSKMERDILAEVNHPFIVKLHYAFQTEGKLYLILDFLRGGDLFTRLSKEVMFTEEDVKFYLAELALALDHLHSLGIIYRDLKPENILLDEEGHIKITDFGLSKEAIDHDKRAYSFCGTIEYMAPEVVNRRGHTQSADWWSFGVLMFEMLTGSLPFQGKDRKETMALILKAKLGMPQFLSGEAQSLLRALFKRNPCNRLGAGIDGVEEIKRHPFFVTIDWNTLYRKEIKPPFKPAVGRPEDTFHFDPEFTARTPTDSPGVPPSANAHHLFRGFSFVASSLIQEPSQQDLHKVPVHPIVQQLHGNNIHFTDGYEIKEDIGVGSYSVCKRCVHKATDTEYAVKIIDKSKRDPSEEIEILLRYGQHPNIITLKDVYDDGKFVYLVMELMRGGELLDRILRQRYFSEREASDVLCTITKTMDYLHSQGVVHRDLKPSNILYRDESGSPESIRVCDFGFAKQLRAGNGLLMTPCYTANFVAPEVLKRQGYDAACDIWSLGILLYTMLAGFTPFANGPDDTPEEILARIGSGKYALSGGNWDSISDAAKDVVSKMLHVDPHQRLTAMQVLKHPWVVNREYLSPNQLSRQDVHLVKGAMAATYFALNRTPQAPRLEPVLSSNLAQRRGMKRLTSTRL", "details": "binder"}, "EGFR(E746-A750del)": {"target": "EGFR(E746-A750del) (Homo sapiens, UniProt P00533, DEL746-750)", "details": "1 µM; binder"}, "TAK1": {"target": "TAK1 (Homo sapiens, UniProt O43318)", "details": "1 µM; binder"}, "FLT3(ITD,D835V)": {"target": "FLT3(ITD,D835V) (Homo sapiens, UniProt P36888, D835V/ITD)", "details": "1 µM; binder"}, "TIE1": {"target": "TIE1 (Homo sapiens, UniProt P35590)", "details": "1 µM; binder"}, "SRC": {"target": "SRC (Homo sapiens, UniProt P12931)", "details": "1 µM; binder"}, "NEK6": {"target": "NEK6 (Homo sapiens, UniProt Q9HC98)", "details": "1 µM; binder"}, "GRK1": {"target": "GRK1 (Homo sapiens, UniProt Q15835)", "details": "1 µM; binder"}, "DAPK3": {"target": "DAPK3 (Homo sapiens, UniProt O43293)", "details": "1 µM; binder"}, "NEK4": {"target": "NEK4 (Homo sapiens, UniProt P51957)", "details": "1 µM; binder"}, "GRK4": {"target": "GRK4 (Homo sapiens, UniProt P32298)", "details": "1 µM; binder"}, "MEK3": {"target": "MEK3 (Homo sapiens, UniProt P46734)", "sequence (P46734 whole entry)": "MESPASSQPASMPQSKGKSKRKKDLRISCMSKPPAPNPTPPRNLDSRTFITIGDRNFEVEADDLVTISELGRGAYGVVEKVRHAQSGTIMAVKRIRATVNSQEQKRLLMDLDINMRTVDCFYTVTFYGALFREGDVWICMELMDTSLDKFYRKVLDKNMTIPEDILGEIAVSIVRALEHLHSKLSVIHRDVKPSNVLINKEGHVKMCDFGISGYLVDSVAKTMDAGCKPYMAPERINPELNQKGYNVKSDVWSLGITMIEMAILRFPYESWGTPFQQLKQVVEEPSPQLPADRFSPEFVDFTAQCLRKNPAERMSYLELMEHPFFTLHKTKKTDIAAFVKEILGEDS", "details": "1 µM; binder"}, "ROCK1": {"target": "ROCK1 (Homo sapiens, UniProt Q13464)", "details": "1 µM; binder"}, "SRPK1": {"target": "SRPK1 (Homo sapiens, UniProt Q96SB4)", "details": "1 µM; binder"}},
  "note": "Like-named read-outs stand apart in the source and are kept apart here.",
  "data": [
    {"smiles": "CNc1ncc2cc(-c3ccc(-c4cccc(C)n4)cc3Cl)c(=O)n(C[C@H]3OC[C@H](N)CO3)c2n1", "note": "[compound 6, G-5555]", "values": [
      {"measurement": "Percent Control", "setting": "CSNK1E", "result": 52, "unit": "%"},
      {"measurement": "Percent Control", "setting": "KIT(D816H)", "result": 100, "unit": "%"},
      {"measurement": "Percent Control", "setting": "MAPKAPK2", "result": 100, "unit": "%"},
      {"measurement": "Percent Control", "setting": "ABL1-nonphosphorylated", "result": 85, "unit": "%"},
      {"measurement": "Percent Control", "setting": "EPHA6", "result": 100, "unit": "%"},
      {"measurement": "Percent Control", "setting": "SRPK3", "result": 100, "unit": "%"},
      {"measurement": "Percent Control", "setting": "ABL1(E255K)", "result": 100, "unit": "%"},
      {"measurement": "Percent Control", "setting": "PRKCQ", "result": 55, "unit": "%"},
      {"measurement": "Percent Control", "setting": "DCAMKL1", "result": 79, "unit": "%"},
      {"measurement": "Percent Control", "setting": "EGFR(T790M)", "result": 85, "unit": "%"},
      {"measurement": "Percent Control", "setting": "KIT(V559D)", "result": 100, "unit": "%"},
      {"measurement": "Percent Control", "setting": "EPHA3", "result": 88, "unit": "%"},
      {"measurement": "Percent Control", "setting": "NEK3", "result": 72, "unit": "%"},
      {"measurement": "Percent Control", "setting": "PHKG2", "result": 100, "unit": "%"},
      {"measurement": "Percent Control", "setting": "HUNK", "result": 100, "unit": "%"},
      {"measurement": "Percent Control", "setting": "RPS6KA2; Kin.Dom.1 N-terminal", "result": 57, "unit": "%"},
      {"measurement": "Percent Control", "setting": "RPS6KA2; Kin.Dom.2 C-terminal, 1 µM", "result": 92, "unit": "%"},
      {"measurement": "Percent Control", "setting": "EGFR(E746-A750del)", "result": 100, "unit": "%"},
      {"measurement": "Percent Control", "setting": "TAK1", "result": 92, "unit": "%"},
      {"measurement": "Percent Control", "setting": "FLT3(ITD,D835V)", "result": 74, "unit": "%"},
      {"measurement": "Percent Control", "setting": "TIE1", "result": 94, "unit": "%"},
      {"measurement": "Percent Control", "setting": "SRC", "result": 100, "unit": "%"},
      {"measurement": "Percent Control", "setting": "NEK6", "result": 100, "unit": "%"},
      {"measurement": "Percent Control", "setting": "GRK1", "result": 100, "unit": "%"},
      {"measurement": "Percent Control", "setting": "DAPK3", "result": 100, "unit": "%"},
      {"measurement": "Percent Control", "setting": "NEK4", "result": 100, "unit": "%"},
      {"measurement": "Percent Control", "setting": "GRK4", "result": 100, "unit": "%"},
      {"measurement": "Percent Control", "setting": "MEK3", "result": 29, "unit": "%"},
      {"measurement": "Percent Control", "setting": "ROCK1", "result": 100, "unit": "%"},
      {"measurement": "Percent Control", "setting": "SRPK1", "result": 98, "unit": "%"}
    ]}
  ]
}
